# Test results from publication PMC6961122 (Bioorganic & Medicinal Chemistry, 2020).
# Where two headings read alike, the source gives them in different places.
# How the values were obtained:
# U87 cells = assay: Cell viability assay (PrestoBlue, 5 d) in U87 glioma cells; type: cell-based; settings: library screen, 5 d treatment, mean of three independent experiments in triplicates, read-out: EC50 U87 ± SEM
# Description: (§1) The antiproliferative activity of a total of 100 compounds was tested against U87 and T98 glioma cell lines, using TMZ[3] and the Topoisomerase I inhibitor SN-38[18] as positive controls. Cells were treated with the library members for 5 d at three different concentrations (3, 30 and 300 µM) and cell viability determined using the PrestoBlue reagent. Half-maximal effective concentration (EC50) values were calculated from the corresponding dose-response curves and plotted in Fig. 2a as a heatmap to facilitate data analysis, with black meaning no activity and dark to light green to yellow transitions indicating decreasing EC50 values (=increasing potencies). Table 1 of the Suppl. Data contains the corresponding EC50 values ± SEM.
# (§2) INK128 and SN-38 were used as positive controls. […] Structurally, these derivatives differed in the size of the alkyl group of the N1 position and the presence or absence of an oxygen atom in that moiety (see Suppl. Data).
# (§3) U87 and T98 cells (ATCC) were cultured in DMEM (Gibco), supplemented with 10% (v/v) FBS (Gibco) and 2 mM L-Glutamine (Gibco) in a standard incubator (95% humidity, 5% CO2), and subcultured twice per week through trypsinization. G317 patient-derived glioma cells were established by the Glioma Cellular Genetics Resource (gcgr.org.uk) funded by Cancer Research UK. Ethics approval for use of patient-derived cells and early access confirmation to reagents from the Glioma Cellular Genetics Resource assured that all ethical issues according to UK legislation are fulfilled. G317 were cultured in DMEM/HAMS-F12 (Sigma) supplemented with 1.5 g L^−1 D-(+)-Glucose (Sigma), MEM non-essential aminoacids (Gibco), 0.015% (w/v) Penicillin-Streptomycin (Gibco), 0.012% (w/v) BSA (Gibco), 0.1 mM β-mercaptoethanol (Gibco), B27 (Gibco) and N2 supplements (Gibco). Cells were detached using accutase solution (Sigma) and subcultured once per week. Before adding to the cells, medium was supplemented with 10 ng ml^−1 mouse EGF (Preprotech), 10 ng ml^−1 human FGF (Preprotech), and 1 µg ml^−1 Laminin (Sigma).
# (§4) 1 × 10^3 U87 cells/well, 5 × 10^2 T98 cells/well, 1 × 10^4 G317 cells/well, 1 × 10^4 HBVP cells/well and 1 × 10^4 bEnd3 cells/well were seeded in 96-well plates. After 48 h in culture, cells were treated with the inhibitors for 5 d. For GI50 determination, the viability of a triplicate sample of each experiment before treatment was measured with the PrestoBlue Reagent (Invitrogen), to establish a basepoint 0% of growth. […] ZIP Synergy scores were obtained with Synergy finder.[22] Viability percentage, EC50 and GI50 values were obtained using GraphPad Prism version 8.0.0 for Windows, GraphPad Software, San Diego, California USA, www.graphpad.com.
# T98 cells = assay: Cell viability assay (PrestoBlue, 5 d) in T98 glioma cells; type: cell-based; settings: library screen, 5 d treatment, mean of three independent experiments in triplicates, read-out: EC50 T98 ± SEM
# Description: as §1, §2, §3, §4
SMILES,EC50 (U87 cells) [µM],EC50 (T98 cells) [µM],"EC50 (U87 cells; Homo sapiens, U-87 MG, 120 h) [µM]","EC50 (T98 cells; Homo sapiens, T98, 120 h) [µM]"
CN(C)CC1CCN(CCn2nc(-c3ccoc3)c3c(N)ncnc32)CC1 [eCF226],> 30,> 30,,
COc1cc(-c2nn(CCN3CCC(N4CCCC4)CC3)c3ncnc(N)c23)ccc1NC(=O)OC(C)(C)C [eCF598],> 30,16.4 ± 9.53,,
COc1cc(-c2nn(CCN3CCC(N(C)C)CC3)c3ncnc(N)c23)ccc1NC(=O)Cc1ccccc1 [eCF530],> 30,22.8 ± 3.21,,
CN(C)C1CCN(CCn2nc(-c3ccc4c(ccn4C(=O)OC(C)(C)C)c3)c3c(N)ncnc32)CC1 [eCF548],7.18 ± 1.5,6.87 ± 1.77,,
Cc1ccc(-c2nn(CCN3CCN(CCO)CC3)c3ncnc(N)c23)cc1 [eCF104],> 30,> 30,,
COc1cc(-c2nn(CCN3CCC(N4CCCCC4)CC3)c3ncnc(N)c23)ccc1NC(=O)OC(C)(C)C [eCF599],> 30,23 ± 13.4,,
Cc1ccc(-c2nn(CCN3CCC(C)CC3)c3ncnc(N)c23)cc1 [eCF110],> 30,> 30,,
CCN1CCN(c2ccc(-c3nn(Cc4cn(Cc5ccccc5)nn4)c4nc(NC)ncc34)cn2)CC1 [eSM155],> 30,> 30,,
CNc1ncc2c(-c3ccc(N4CCN(C(=O)C(C)(C)C)CC4)nc3)nn(Cc3cn(Cc4ccccc4)nn3)c2n1 [eSM153],> 30,> 30,,
CNc1ncc2c(-c3ccc(C(F)(F)F)cc3)nn(CC3OCCO3)c2n1 [eSM114],> 30,> 30,,
CNc1ncc2c(-c3ccc(N4CCN(C(=O)C(C)(C)C)CC4)nc3)nn(CC3CCCC3)c2n1 [eSM150],22.7 ± 9.53,10.1 ± 3,,
Cc1ccc(-c2nn(CCN3CCC(N(C)C)CC3)c3ncnc(N)c23)cc1 [eCF109],> 30,26.3 ± 7.3,,
Cc1ccc(-c2nn(CCN3CCN(C)CC3)c3ncnc(N)c23)cc1 [eCF103],> 30,> 30,,
CNc1ncc2c(-c3ccc(OC)cc3)nn(CC3CCCC3)c2n1 [eSM105],20.9 ± 1.73,6.36 ± 0.563,,
CCOC(Cn1nc(-c2ccc(C(N)=O)cc2)c2c(N)ncnc21)OCC [eCF209],> 30,> 30,,
CN(C)C1CCN(CCn2nc(-c3ccc(CC(=O)OC(C)(C)C)cc3)c3c(N)ncnc32)CC1 [eCF553],> 30,6.58 ± 2.18,,
Nc1ncnc2c1c(-c1ccc(C(F)(F)F)cc1)nn2CC1CCCC1 [eSM210],25 ± 3.15,18.8 ± 2.69,,
COc1cc(-c2nn(CCN3CCC(N(C)C)CC3)c3ncnc(N)c23)ccc1NC(=O)OC(C)(C)C [eCF506],,,13.6 ± 0.809,9.97 ± 4.88
CNc1ncc2c(-c3ccc(N4CCNCC4)nc3)nn(Cc3cn(C4CCCC4O)nn3)c2n1 (stereo not drawn) [eSM121],16.5 ± 1.88,26.3 ± 1.81,,

SMILES,EC50 (U87 cells) [µM],EC50 (T98 cells) [µM],"EC50 (U87 cells; Homo sapiens, U-87 MG, 120 h) [µM]","EC50 (T98 cells; Homo sapiens, T98, 120 h) [µM]"
CNc1ncc2c(-c3ccc(F)cc3)nn(CC3OCCO3)c2n1 [eSM113],> 30,> 30,,
CNc1ncc2c(-c3ccc(N4CCN(C)CC4)cc3)nn(CC3CCCC3)c2n1 [eSM156],8 ± 3.32,1.77 ± 0.865,,
Cc1ccc(-c2nn(CCN3CCOCC3)c3ncnc(N)c23)cc1 [eCF102],> 30,> 30,,
CNc1ncc2c(-c3ccc(OC)c(OC)c3)nn(CC3CCCC3)c2n1 [eSM104],> 30,17.5 ± 2.14,,
Cc1ccc(-c2nn(CCN3CCC(O)CC3)c3ncnc(N)c23)cc1 [eCF106],> 30,> 30,,
Cc1ccc(-c2nn(CCN3CCC(CO)CC3)c3ncnc(N)c23)cc1 [eCF107],> 30,> 30,,
COc1cc(-c2nn(CCN3CCC(N(C)C)CC3)c3ncnc(N)c23)ccc1NC(=O)OC(C)(C)C [eCF581],> 30,> 30,,
CNc1ncc2c(-c3ccc(-c4ccccc4)cc3)nn(CC3OCCO3)c2n1 [eSM111],> 30,> 30,,
COc1cc(-c2nn(CCN3CCC(N(C)C)CC3)c3ncnc(N)c23)ccc1NC(=O)OCc1ccccc1 [eCF533],8.22 ± 0.671,3.79 ± 0.519,,
CCOC(Cn1nc(-c2cccc(O)c2)c2c(N)ncnc21)OCC [eCF205],> 30,> 30,,
CNc1ncc2c(-c3ccc(N4CCNCC4)nc3)nn(Cc3cn(-c4ccccc4)nn3)c2n1 [eSM139],6.09 ± 1.39,8.6 ± 3.39,,
CN(C)C1CCN(CCn2nc(-c3ccc(NC(=O)OC(C)(C)C)nc3)c3c(N)ncnc32)CC1 [eCF549],> 30,> 30,,
CNc1ncc2c(-c3ccc(N4CCN(C)CC4)nc3)nn(CC3CCCC3)c2n1 [eSM157],7.28 ± 2.7,1.71 ± 0.512,,
COc1ccc(-c2nn(CCN3CCC(N(C)C)CC3)c3ncnc(N)c23)cc1NC(=O)OC(C)(C)C [eCF558],> 30,> 30,,
COc1cc(-c2nn(CCN3CCC(N(C)C)CC3)c3ncnc(N)c23)ccc1NC(=O)Oc1ccccc1 [eCF532],29.2 ± 3.88,9.1 ± 1.37,,
CN(C)CC1CCN(CCn2nc(-c3cccc(O)c3)c3c(N)ncnc32)CC1 [eCF225],> 30,> 30,,
Nc1ncc(-c2ccc(-c3nn(CC4CCCC4)c4ncnc(N)c34)cc2)o1 [eCF341],20.3 ± 2.63,26.2,,
CNc1ncc2c(-c3ccc(N4CCNCC4)nc3)nn(Cc3cn(C4CCCCC4O)nn3)c2n1 (stereo not drawn) [eSM123],25.4 ± 4.66,24.2 ± 3.6,,
CCOC(Cn1nc(-c2ccc(OC)c(OC)c2)c2c(N)ncnc21)OCC [eCF204],> 30,> 30,,

SMILES,EC50 (U87 cells) [µM],EC50 (T98 cells) [µM],"EC50 (U87 cells; Homo sapiens, U-87 MG, 120 h) [µM]","EC50 (T98 cells; Homo sapiens, T98, 120 h) [µM]"
CN(C)C1CCN(CCn2nc(-c3cnc4[nH]ccc4c3)c3c(N)ncnc32)CC1 [eCF502],15.2 ± 2.36,17.6 ± 3.93,,
CNc1ncc2c(-c3ccc(N(C)C)nc3)nn(Cc3cn(Cc4ccccc4)nn3)c2n1 [eSM146],> 30,> 30,,
CCOC(Cn1nc(-c2ccc3ncccc3c2)c2c(N)ncnc21)OCC [eCF203],> 30,> 30,,
CCOC(Cn1nc(-c2cccc(C(N)=O)c2)c2c(N)ncnc21)OCC [eCF208],> 30,> 30,,
Cc1ccc(-c2nn(CCN3CCCCC3)c3ncnc(N)c23)cc1 [eCF111],> 30,> 30,,
CN(C)C1CCN(CCn2nc(-c3ccc(NC(=O)OC(C)(C)C)cc3)c3c(N)ncnc32)CC1 [eCF543],> 30,11.4 ± 1.44,,
Cc1ccc(-c2nn(CCN3CCN(CCN(C)C)CC3)c3ncnc(N)c23)cc1 [eCF105],> 30,> 30,,
COc1cc(-c2nn(CCN3CCC(N4CCCCC4)CC3)c3ncnc(N)c23)ccc1NC(=O)OC(C)(C)C [eCF519],17 ± 2.37,3.14 ± 0.331,,
CNc1ncc2c(-c3ccc(N4CCNCC4)nc3)nn(CC3OCCO3)c2n1 [eSM112],21.3 ± 2.35,9.26 ± 0.465,,
NC(=O)c1ccc(-c2nn(CC3CCCC3)c3ncnc(N)c23)cc1 [eSM207],19.9 ± 6.03,21.3 ± 3.28,,
Cc1ccc(-c2nn(CCN3CCC(CCN(C)C)CC3)c3ncnc(N)c23)cc1 [eCF113],6.74 ± 1.48,5.72 ± 1.95,,
Nc1ncnc2c1c(-c1ccc(F)cc1)nn2CC1CCCC1 [eSM211],> 30,24.6 ± 3.25,,
CN(C)C1CCN(CCn2nc(-c3cccc(NC(=O)OC(C)(C)C)c3)c3c(N)ncnc32)CC1 [eCF542],> 30,> 30,,
CNc1ncc2c(-c3ccc(N4CCNCC4)nc3)nn(Cc3cn(Cc4ccccc4)nn3)c2n1 [eSM119],9.73 ± 1.22,11.3 ± 0.882,,
CNc1ncc2c(-c3ccc(N4CCNCC4)cc3)nn(Cc3cn(Cc4ccccc4)nn3)c2n1 [eSM135],13 ± 0.291,6.26 ± 1.39,,
CNc1ncc2c(-c3ccc(N4CCN(C)CC4)nc3)nn(Cc3cn(Cc4ccccc4)nn3)c2n1 [eSM134],18.9 ± 5.27,18.8 ± 3.57,,
COc1cc(-c2nn(CCN3CCC(N(C)C)CC3)c3ncnc(N)c23)ccc1NC(=O)NC(C)(C)C [eCF540],> 30,24.8 ± 2.68,,
COc1cc(-c2nn(CCN3CCC(N(C)C)CC3)c3ncnc(N)c23)ccc1NC(=O)CC(C)(C)C [eCF526],> 30,> 30,,
COc1ccc(-c2nn(CC3CCCC3)c3ncnc(N)c23)cc1OC [eSM204],8.56 ± 0.564,6.58 ± 1.47,,
